Experimental data as given in patent publication US20240425464A1, “Substituted Monohydrazides as Potent Antifungal Agents” (University of Kentucky Research Foundation, priority 2023, published 2024).
Values after ≈ are worked out from the molar mass of the structure shown. Like-named read-outs stand apart in the source and are kept apart here.

Assays:
[1] = test system: Candida glabrata ATCC 2001 (H); experiment: MIC determination by in vitro antifungal assay; format: cell-based; settings: ATCC 2001 in text
How it was run: (§1)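 Overnight YPD cultures of yeast were adjusted in RPMI 1640 to OD600 0.12 (˜1×10^6 CFU/mL) and diluted 1:100. The cells were added to serially double-diluted compound (0.06-31.3 μg/mL) in MOPS-buffered RPMI 1640 at pH 7.0. Plates were then incubated at 35° C for 48 h.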

[2] = test system: Candida parapsilosis ATCC 22019 (J); experiment: MIC determination by in vitro antifungal assay; format: cell-based
How it was run: as §1

[3] = test system: Candida krusei ATCC 6258 (I); experiment: MIC determination by in vitro antifungal assay; format: cell-based
How it was run: as §1

[4] = test system: Aspergillus nidulans ATCC 38163 (P); experiment: MIC determination by in vitro antifungal assay; format: cell-based
How it was run: (§2)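 CLSI M27-A3/M38-A2 microdilution, modified. Medium: RPMI 1640 + 0.165 M MOPS, pH 7.0. Compound range 0.06-31.3 μg/mL, double dilution. Incubation 48 h, 35° C. Yeast inoculum: OD600 0.12 (˜1×10^6 CFU/mL), then 1:100.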

[5] = test system: Aspergillus flavus ATCC MYA-3631 (O); experiment: MIC determination by in vitro antifungal assay; format: cell-based; settings: strain O = A. flavus ATCC MYA-3631
How it was run: as §2

[6] = test system: Cryptococcus neoformans ATCC MYA-895 (M); experiment: MIC determination by in vitro antifungal assay; format: cell-based; settings: strain M = C. neoformans ATCC MYA-895
How it was run: as §1

[7] = test system: C. albicans ATCC 10231 (strain A); experiment: MIC determination by in vitro antifungal assay (CLSI broth dilution); format: cell-based, Candida albicans; settings: strain A = C. albicans ATCC 10231, no visible growth, 48 h at 35° C.
How it was run: as §1

[8] = strain H = C. glabrata ATCC 2004 (footnote)
[9] = strain J = C. parapsilosis ATCC 22019
[10] = strain P = A. nidulans ATCC 38163
[11] = Nakaseomyces glabratus, ATCC 2001 / ATCC 2004, strain H = C. glabrata ATCC 2004 (footnote), read-out: MIC
[12] = Lodderomyces parapsilosis, ATCC22019, strain J = C. parapsilosis ATCC 22019, read-out: MIC
[13] = Pichia kudriavzevii, ATCC6258, strain I = C. krusei ATCC 6258, read-out: MIC
[14] = Aspergillus nidulans, ATCC38163, strain P = A. nidulans ATCC 38163, read-out: MIC
[15] = Aspergillus flavus, read-out: MIC
[16] = Cryptococcus neoformans, read-out: MIC
[17] = Candida albicans, ATCC10231, 48 h, read-out: MIC

SMILES	MIC [1, 8] [μg/mL^−1]	MIC [2, 9] [μg/mL^−1]	MIC ([3]; strain I = C. krusei ATCC 6258) [μg/mL^−1]	MIC [4, 10] [μg/mL^−1]	MIC [5] [μg/mL^−1]	MIC [6] [μg/mL^−1]	MIC [7] [μg/mL^−1]	MIC [1, 11] [mg/L]	MIC [2, 12] [mg/L]	MIC [3, 13] [mg/L]	MIC [4, 14] [mg/L]	MIC [5, 15] [mg/L]	MIC [6, 16] [mg/L]	MIC [7, 17] [mg/L]
O=C(NNc1ccc(Cl)cc1)c1ncc(F)cc1F [Compound 7e]	3.9	15.6	1.95	7.8	>31.3	1.95	3.9	–	–	–	–	–	–	–
COc1ccc(NNC(=O)c2ncc(F)cc2F)cc1 [Compound 7f]	–	–	–	–	–	–	–	7.8 (≈ 27.9 µM)	7.8 (≈ 27.9 µM)	0.98 (≈ 3.51 µM)	1.95 (≈ 6.98 µM)	> 31.3	1.95 (≈ 6.98 µM)	1.95 (≈ 6.98 µM)
O=C(NNc1ccc(F)cc1F)c1ncc(F)cc1F [Compound 7g]	–	–	–	–	–	–	–	> 31.3	31.3 (≈ 110 µM)	0.98 (≈ 3.44 µM)	0.98 (≈ 3.44 µM)	> 31.3	0.98 (≈ 3.44 µM)	0.98 (≈ 3.44 µM)
O=C(NNc1cccc(F)c1)c1nc(F)ccc1F [Compound 8a]	15.6	7.8	0.49	1.95	>31.3	≤0.06	0.98	–	–	–	–	–	–	–
COc1cccc(NNC(=O)c2nc(F)ccc2F)c1 [Compound 8c]	–	–	–	–	–	–	–	15.6 (≈ 55.9 µM)	7.8 (≈ 27.9 µM)	15.6 (≈ 55.9 µM)	7.8 (≈ 27.9 µM)	> 31.3	7.8 (≈ 27.9 µM)	0.98 (≈ 3.51 µM)
O=C(NNc1ccc(F)cc1)c1nc(F)ccc1F [Compound 8d]	–	–	–	–	–	–	–	15.6 (≈ 58.4 µM)	7.8 (≈ 29.2 µM)	0.24 (≈ 0.898 µM)	0.49 (≈ 1.83 µM)	7.8 (≈ 29.2 µM)	0.49 (≈ 1.83 µM)	0.24 (≈ 0.898 µM)
O=C(NNc1ccc(Cl)cc1)c1nc(F)ccc1F [Compound 8e]	3.9	15.6	3.9	7.8	>31.3	1.95	3.9	–	–	–	–	–	–	–
COc1ccc(NNC(=O)c2nc(F)ccc2F)cc1 [Compound 8f]	–	–	–	–	–	–	–	7.8 (≈ 27.9 µM)	7.8 (≈ 27.9 µM)	0.98 (≈ 3.51 µM)	1.95 (≈ 6.98 µM)	> 31.3	0.98 (≈ 3.51 µM)	1.95 (≈ 6.98 µM)
O=C(NNc1ccc(F)cc1F)c1nc(F)ccc1F [Compound 8g]	–	–	–	–	–	–	–	15.6 (≈ 54.7 µM)	15.6 (≈ 54.7 µM)	0.49 (≈ 1.72 µM)	0.49 (≈ 1.72 µM)	> 31.3	0.49 (≈ 1.72 µM)	0.98 (≈ 3.44 µM)
O=C(NNc1cccc(F)c1)c1cnccn1 [Compound 9a]	7.8	3.9	0.49	0.98	15.6	0.12	0.24	–	–	–	–	–	–	–
O=C(NNc1cccc(Cl)c1)c1cnccn1 [Compound 9b]	–	–	–	–	–	–	–	3.9 (≈ 15.7 µM)	1.95 (≈ 7.84 µM)	0.24 (≈ 0.965 µM)	0.98 (≈ 3.94 µM)	> 31.3	0.24 (≈ 0.965 µM)	0.24 (≈ 0.965 µM)
COc1cccc(NNC(=O)c2cnccn2)c1 [Compound 9c]	–	–	–	–	–	–	–	7.8 (≈ 31.9 µM)	1.95 (≈ 7.98 µM)	0.49 (≈ 2.01 µM)	1.95 (≈ 7.98 µM)	> 31.3	0.49 (≈ 2.01 µM)	0.49 (≈ 2.01 µM)
O=C(NNc1ccc(F)cc1)c1cnccn1 [Compound 9d]	–	–	–	–	–	–	–	3.9 (≈ 16.8 µM)	3.9 (≈ 16.8 µM)	0.49 (≈ 2.11 µM)	0.49 (≈ 2.11 µM)	15.6 (≈ 67.2 µM)	0.24 (≈ 1.03 µM)	0.24 (≈ 1.03 µM)
O=C(NNc1ccc(Cl)cc1)c1cnccn1 [Compound 9e]	1.95	7.8	3.9	1.95	>31.3	0.98	0.98	–	–	–	–	–	–	–
COc1ccc(NNC(=O)c2cnccn2)cc1 [Compound 9f]	–	–	–	–	–	–	–	0.98 (≈ 4.01 µM)	3.9 (≈ 16 µM)	0.98 (≈ 4.01 µM)	0.98 (≈ 4.01 µM)	> 31.3	0.98 (≈ 4.01 µM)	0.49 (≈ 2.01 µM)
O=C(NNc1ccc(F)cc1F)c1cnccn1 [Compound 9g]	–	–	–	–	–	–	–	0.98 (≈ 3.92 µM)	3.9 (≈ 15.6 µM)	0.24 (≈ 0.959 µM)	0.49 (≈ 1.96 µM)	7.8 (≈ 31.2 µM)	0.24 (≈ 0.959 µM)	0.24 (≈ 0.959 µM)
O=C(NNc1cc(F)ccc1F)c1cnccn1 [Compound 9h]	–	–	–	–	–	–	–	15.6 (≈ 62.3 µM)	7.8 (≈ 31.2 µM)	0.49 (≈ 1.96 µM)	1.95 (≈ 7.79 µM)	> 31.3	0.49 (≈ 1.96 µM)	0.24 (≈ 0.959 µM)
O=C(NNc1cc(F)cc(F)c1)c1cnccn1 [Compound 9i]	–	–	–	–	–	–	–	7.8 (≈ 31.2 µM)	3.9 (≈ 15.6 µM)	0.49 (≈ 1.96 µM)	1.95 (≈ 7.79 µM)	3.9 (≈ 15.6 µM)	0.24 (≈ 0.959 µM)	0.24 (≈ 0.959 µM)
O=C(NNc1cc(Cl)cc(Cl)c1)c1cnccn1 [Compound 9j]	–	–	–	–	–	–	–	15.6 (≈ 55.1 µM)	3.9 (≈ 13.8 µM)	0.98 (≈ 3.46 µM)	7.8 (≈ 27.6 µM)	> 31.3	0.49 (≈ 1.73 µM)	0.49 (≈ 1.73 µM)
